Source: patent publication EP1614683B1, “Indazole compounds and pharmaceutical compositions for inhibiting protein kinases, and methods for their use” (priority 1999, dated 2001)
Read-outs that look alike come from different tables or passages of the source.

How the values were obtained:
[1] = target: unphosphorylated VEGF-R2Δ50 (Homo sapiens, UniProt P35968, DEL940-989/E990V); assay: biochemical; conditions: for inhibition at 0.05 µM: read-out: FLVK ** (% inhibition)
[2] = tested on: human umbilical vein endothelial cells (HUVEC); assay: HUVEC proliferation assay (VEGF-stimulated, MTT); format: cell-based; conditions: Homo sapiens, HUVEC, Table 1
human FGF-R1 = human FGF-R1 (Homo sapiens, UniProt P11362, C488A/C584S/L457V); assay: FGF-R spectrophotometric assay; format: biochemical; conditions: Table 1; compound concentration 1 µM; read-out: FGF-P* (% inhibition)
Protocol: The spectrophotometric assay was carried out as described above for VEGF-R2, except for the following changes in concentration: FGF-R = 50 nM, ATP = 2 mM, and poly(E4Y1) =15 mM.

LCK tyrosine kinase = LCK tyrosine kinase (Homo sapiens, UniProt P06239, C224D/P223M); assay: LCK spectrophotometric assay; format: biochemical; conditions: Table 1; compound concentration 1 µM; read-out: Lck-P* (% inhibition)
Protocol: The spectrophotometric assay was carried out as described above for VEGF-R2, except for the following changes in concentration: LCK = 60 nM, MgCl2 = 0 mM, poly(E4Y1) = 20 mM.

in vitro = in vitro ADME, human; conditions: 2 h
Protocol: Compound metabolism in human liver microsomes was measured by LC-MS analytical assay procedures as follows. First, human liver microsomes (HLM) were thawed and diluted to 5 mg/mL with cold 100 mM potassium phosphate (KPO4) buffer. Appropriate amounts of KPO4 buffer, NADPH-regenerating solution (containing B-NADP, glucose-6-phosphate, glucose-6-phosphate dehydrogenase, and MgCl2), and HLM were preincubated in 13 x 100 mm glass tubes at 37 C for 10 min. (3 tubes per test compound--triplicate). Test compound (5 µM final) was added to each tube to initiate reaction and was mixed by gentle vortexing, followed by incubation at 37 °C. At t=0, 2 h, a 250-µL sample was removed from each incubation tube to separate 12 x 75 mm glass tubes containing 1 mL ice-cold acetonitrile with 0.05 µM reserpine. […] Supernatant was transferred to new 12 x 75 mm glass tubes and evaporated by Speed-Vac centrifugal vacuum evaporator. Samples were reconstituted in 200 µL 0.1 % formic acid/acetonitrile (90/10) and vortexed vigorously to dissolve. The samples were then transferred to separate polypropylene microcentrifuge tubes and centrifuged at 14000 x g for 10 min. (Fisher Micro 14, S/N M0017580). For each replicate (#1-3) at each timepoint (0 and 2 h), an aliquot sample of each test compound was combined into a single HPLC vial insert (6 total samples) for LC-MS analysis, which is described below.

[3] = + albumin, read-out: HUVEC + albumin IC50
[4] = human liver microsomes, 5 µM test compound, 37 °C

LCK tyrosine kinase, sequence (P06239 223-509 P223M/C224D): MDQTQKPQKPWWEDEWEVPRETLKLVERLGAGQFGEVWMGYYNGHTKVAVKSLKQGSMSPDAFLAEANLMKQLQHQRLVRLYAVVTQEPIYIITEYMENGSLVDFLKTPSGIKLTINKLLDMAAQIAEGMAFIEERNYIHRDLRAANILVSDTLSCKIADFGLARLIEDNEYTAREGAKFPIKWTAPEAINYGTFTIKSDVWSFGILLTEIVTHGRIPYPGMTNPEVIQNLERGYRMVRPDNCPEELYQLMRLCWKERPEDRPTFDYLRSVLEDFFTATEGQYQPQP
human FGF-R1, sequence (P11362 456-766 L457V/C488A/C584S): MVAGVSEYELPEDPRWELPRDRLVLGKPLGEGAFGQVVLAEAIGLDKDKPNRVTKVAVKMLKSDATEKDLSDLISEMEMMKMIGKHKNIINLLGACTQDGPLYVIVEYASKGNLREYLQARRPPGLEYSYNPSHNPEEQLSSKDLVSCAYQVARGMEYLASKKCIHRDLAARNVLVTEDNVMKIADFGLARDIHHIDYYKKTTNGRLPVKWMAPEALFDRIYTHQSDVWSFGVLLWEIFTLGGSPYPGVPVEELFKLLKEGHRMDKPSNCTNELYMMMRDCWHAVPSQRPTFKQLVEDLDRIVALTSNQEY
unphosphorylated VEGF-R2Δ50, sequence (P35968 with tags, fused parts or gaps DEL940-989/E990V limits assumed): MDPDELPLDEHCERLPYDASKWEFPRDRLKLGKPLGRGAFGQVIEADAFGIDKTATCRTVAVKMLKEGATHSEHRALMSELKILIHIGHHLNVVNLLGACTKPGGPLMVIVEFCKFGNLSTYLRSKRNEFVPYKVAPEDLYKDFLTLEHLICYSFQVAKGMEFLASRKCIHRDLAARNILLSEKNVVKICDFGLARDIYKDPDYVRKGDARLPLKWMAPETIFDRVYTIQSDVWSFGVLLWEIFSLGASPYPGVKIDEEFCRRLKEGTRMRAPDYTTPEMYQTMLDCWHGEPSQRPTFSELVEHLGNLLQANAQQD

## CCONC(=O)c1cccc(F)c1Sc1ccc2c(/C=C/c3ccccn3)n[nH]c2c1 [Reference Example 37(a), 6-[6-Fluoro-2-(ethoxycarbamoyl)phenylsulfanyl}-3-E-[2-(pyridin-2-yl)ethenyl]-1H-indazole]
[1]
  inhibition at 0.05 µM: 57%
[2]; [3]
  IC50: 15 nM
Human FGF-R1
  inhibition at 1 µM: 35%
LCK tyrosine kinase
  inhibition at 1 µM: 6%
In vitro; [4]
  % remain (HLM, 2 h): 21, ! %

## O=C(Nc1nccs1)c1ccccc1Sc1ccc2c(/C=C/c3ccccn3)n[nH]c2c1 [Reference Example 35(y), 6-[2-(Thiazol-2-ylcarbamoyl)phenylsulfanyl]-3-E-[2-(pyridin-2-yl)ethenyl]-1H-indazole]
[1]
  inhibition at 0.05 µM: 99%
[2]; [3]
  IC50: 1 to 3 nM
Human FGF-R1
  inhibition at 1 µM: 82%
LCK tyrosine kinase
  inhibition at 1 µM: 29%
In vitro; [4]
  % remain (HLM, 2 h): 7%

## Cc1cc(C(=O)Nc2cc(C(=O)c3ccc4c(/C=C/c5ccccn5)n[nH]c4c3)c(C)cc2C)n(C)n1 [41(min)]
[1]
  inhibition at 0.05 µM: 93%
[2]; [3]
  IC50: 14.4 nM
[2]; read-out: HUVEC IC50
  IC50: 1.3 nM
Human FGF-R1
  inhibition at 1 µM: 46%
LCK tyrosine kinase
  inhibition at 1 µM: 6%
In vitro; human, microsomes, 5 µM
  % remain (HLM, 2 h): 94%

## C[C@@H]1C[C@H]1C(=O)Nc1cccc(C(=O)c2ccc3c(/C=C/c4ccccn4)n[nH]c3c2)c1 (racemic) [Reference Example 41(h), 6-[3-((2-RS-trans-methylcyclopropyl)carboxamido)benzoyl]-3-E-[2-(pyridin-2-yl)ethenyl]-1H-indazole]
[1]
  inhibition at 0.05 µM: 90%
[2]; [3]
  IC50: 25 nM
[2]; read-out: HUVEC IC50
  IC50: 2 nM
LCK tyrosine kinase
  inhibition at 1 µM: 30%
In vitro; human liver microsomes, 5 µM test compound, 37 °C, read-out: % remain (HLM, 2 h)
  remaining at 2 h, 5 µM: 8%

## C=CCn1nc(C)cc1C(=O)Nc1cc(C(=O)c2ccc3c(/C=C/c4ccccn4)n[nH]c3c2)ccc1C [Reference Example 41(ff), 6-[3-((1-Allyl-3-methyl-1H-pyrazol-5-yl)carboxamido)-4-methylbenzoyl]-3-E-[2-(pyridin-2-yl)ethenyl]-1H-indazole]
[1]
  inhibition at 0.05 µM: 98%
[2]; [3]
  IC50: 5.6 nM
LCK tyrosine kinase
  inhibition at 1 µM: 15%
In vitro; [4]
  % remain (HLM, 2 h): 68%

## C=C(C)CNC(=O)c1ccccc1Sc1ccc2c(/C=C/c3ccccn3)n[nH]c2c1 [Reference Example 35(ee), 6-[2-(2-Methyl-2-propenylcarbamoyl)phenylsulfanyl]-3-E-[2-(pyridin-2-yl)ethenyl]-1H-indazole]
[1]
  inhibition at 0.05 µM: 82%
[2]; [3]
  IC50: 3 nM
In vitro; [4]
  % remain (HLM, 2 h): 13%

## Cc1ccc(CNC(=O)c2ccccc2Sc2ccc3c(/C=C/c4ccccn4)n[nH]c3c2)o1 [Reference Example 35(h), 6-[2-((5-Methylfur-2-yl)methylcarbamoyl)phenylsulfanyl)-3-E-[2-(pyridin-2-yl)ethenyl]-1H-indazole]
[1]
  inhibition at 0.05 µM: 100%
[2]; [3]
  IC50: 3.6 nM
In vitro; [4]
  % remain (HLM, 2 h): 9%

## CC(C)=CC(=O)Nc1cccc(C(=O)c2ccc3c(/C=C/c4ccccn4)n[nH]c3c2)c1 [Reference Example 41(dd), 6-[3-(3,3-dimethylacrylamido)benzoyl]-3-E-[2-(pyridin-2-yl)ethenyl]-1H-indazole]
[1]
  inhibition at 0.05 µM: 98%
[2]; [3]
  IC50: 5.8 nM
Human FGF-R1
  inhibition at 1 µM: 69%
LCK tyrosine kinase
  inhibition at 1 µM: 50%
In vitro; [4]
  % remain (HLM, 2 h): 7%

## O=C(Nc1cccc(C(=O)c2ccc3c(/C=C/c4ccccn4)n[nH]c3c2)c1)c1ccnc(Cl)c1 [Reference Example 41(w), 6-[3-((2-chloropyridin-4-yl)carboxamido)benzoyl]-3-E-[2-(pyridin-2-yl)ethenyl]-1H-indazole]
[1]
  inhibition at 0.05 µM: 97%
[2]; [3]
  IC50: ~10 nM
Human FGF-R1
  inhibition at 1 µM: 67%
LCK tyrosine kinase
  inhibition at 1 µM: 49%

## COc1ccc(CNC(=O)c2ccccc2Sc2ccc3c(/C=C/c4ccccn4)n[nH]c3c2)cc1 [Reference Example 35(g)]
[1]
  inhibition at 0.05 µM: 100%
[2]; [3]
  IC50: ~15 nM
In vitro; [4]
  % remain (HLM, 2 h): 53%

## CCNC(=O)c1ccccc1Sc1ccc2c(/C=C/c3ccccn3)n[nH]c2c1 [Reference Example 35(x), 6-[2-(Ethylcarbamoyl)phenylsulfanyl]-3-E-[2-(pyridin-2-yl)ethenyl]-1H-indazole]
[1]
  inhibition at 0.05 µM: 75%
[2]; [3]
  IC50: 2 nM
In vitro; [4]
  % remain (HLM, 2 h): 37%

## O=C(NCc1ccccc1F)c1ccccc1Sc1ccc2c(/C=C/c3ccccn3)n[nH]c2c1 [Reference Example 35(f)]
[1]
  inhibition at 0.05 µM: 100%
In vitro; [4]
  % remain (HLM, 2 h): 15%

## O=C(NCc1ccco1)c1ccccc1Sc1ccc2c(/C=C/c3ccccn3)n[nH]c2c1 [Reference Example 35(bb), 6-[2-((fur-2-yl)methylcarbamoyl)phenylsulfanyl]-3-E-[2-(pyridin-2-yl)ethenyl]-1H-indazole]
[1]
  inhibition at 0.05 µM: 87%
[2]; [3]
  IC50: 4.1 nM
In vitro; [4]
  % remain (HLM, 2 h): 8%

## CC(C)COC(=O)Nc1cccc(C(=O)c2ccc3c(/C=C/c4ccccn4)n[nH]c3c2)c1 [Reference Example 41(y)]
[1]
  inhibition at 0.05 µM: 98%
[2]; [3]
  IC50: 30 to 100 nM
Human FGF-R1
  inhibition at 1 µM: 86%
LCK tyrosine kinase
  inhibition at 1 µM: 61%

## O=C(NCCc1cccs1)c1ccccc1Sc1ccc2c(/C=C/c3ccccn3)n[nH]c2c1 [Reference Example 35(hh), 6-[2-(2-(Thien-2-yl)ethylcarbamoyl)phenylsulfanyl]-3-E-[2-(pyridin-2-yl)ethenyl]-1H-indazole]
[1]
  inhibition at 0.05 µM: 100%
[2]; [3]
  IC50: 7 nM
Human FGF-R1
  inhibition at 1 µM: 73%
LCK tyrosine kinase
  inhibition at 1 µM: 34%

## C=CCNC(=O)c1ccccc1Sc1ccc2c(/C=C/c3ccccn3)n[nH]c2c1 [Reference Example 35(u), 6-[2-(Allylcarbamoyl)phenylsulfanyl]-3-E-[2-(pyridin-2-yl)ethenyl]-1H-indazole]
[1]
  inhibition at 0.05 µM: 79%
[2]; [3]
  IC50: 2.8 nM
In vitro; [4]
  % remain (HLM, 2 h): 27%

## Cn1ccnc1/C=N/NC(=O)c1ccccc1Sc1ccc2c(/C=C/c3ccccn3)n[nH]c2c1 [Reference Example 36(a)]
[1]
  inhibition at 0.05 µM: 87%
[2]; [3]
  IC50: 19 nM
Human FGF-R1
  inhibition at 1 µM: 38%
LCK tyrosine kinase
  inhibition at 1 µM: 19%

## CCc1cc(C(=O)Nc2cccc(C(=O)c3ccc4c(/C=C/c5ccccn5)n[nH]c4c3)c2)n(C)n1 [Reference Example 41(v), 6-[3-((3-Ethyl-1-methyl-1H-pyrazol-5-yl)carboxamido)benzoyl]-3-E-[2-(pyridin-2-yl)ethenyl)-1H-indazole]
[1]; read-out: FLVK ** (% inhibition, cell marked *)
  inhibition at 1 µM: 68%
[2]; [3]
  IC50: 12 nM
Human FGF-R1
  inhibition at 1 µM: 68%
LCK tyrosine kinase
  inhibition at 1 µM: 52%

## CCOCCNC(=O)c1ccccc1Sc1ccc2c(/C=C/c3ccccn3)n[nH]c2c1 [Reference Example 35(z), 6-[2-(2-(Ethoxy)ethylcarbamoyl)phenylsulfanyl]-3-E-[2-(pyridin-2-yl)ethenyl]-1H-indazole]
[1]
  inhibition at 0.05 µM: 95%
[2]; [3]
  IC50: 7.1 nM
In vitro; [4]
  % remain (HLM, 2 h): 2%

## COc1cccc(CNC(=O)c2ccccc2Sc2ccc3c(/C=C/c4ccccn4)n[nH]c3c2)c1 [Reference Example 35(aa)]
[1]
  inhibition at 0.05 µM: 99%
[2]; [3]
  IC50: 5 nM
In vitro; [4]
  % remain (HLM, 2 h): 15%

## CCc1cc(C(=O)Nc2cc(C(=O)c3ccc4c(/C=C/c5ccccn5)n[nH]c4c3)ccc2C)n(C)n1 [Reference Example 41(jj), 6-[3-((3-Ethyl-1-methyl-1H-pyrazol-5-yl)carboxamido)-4. methylbenzoyl]-3-E-[2-(pyridin-2-yl)ethenyl]-1H-indazole]
[1]
  inhibition at 0.05 µM: 87%
[2]; [3]
  IC50: 21 nM
Human FGF-R1
  inhibition at 1 µM: 81%
LCK tyrosine kinase
  inhibition at 1 µM: 19%

## O=C(N[C@@H]1C[C@H]1c1ccccc1)c1ccccc1Sc1ccc2c(/C=C/c3ccccn3)n[nH]c2c1 (racemic) [Reference Example 34]
[1]
  inhibition at 0.05 µM: 97%
[2]; [3]
  IC50: 15 nM
Human FGF-R1
  inhibition at 1 µM: 95%
LCK tyrosine kinase
  inhibition at 1 µM: 78%

## O=C(NC1CC1)c1cccc(F)c1Sc1ccc2c(/C=C/c3ccccn3)n[nH]c2c1 [Reference Example 37(b), 6-[6-Fluoro-2-(cyclopropylcarbamoyl)phenylsulfanyl]-3-E-[2-(pyridin-2-yl)ethenyl]-1H-indazole]
[1]
  inhibition at 0.05 µM: 48%
[2]; [3]
  IC50: 30 to 100 nM
Human FGF-R1
  inhibition at 1 µM: 36%
LCK tyrosine kinase
  inhibition at 1 µM: 8%
